IC50 data for 42 compounds are collected here from ChEMBL document CHEMBL2331288 (Bioorg Med Chem Lett, 2013).

Assay [1] concerns the target 72 kDa type IV collagenase (Homo sapiens, UniProt P08253).
Description: Inhibition of human recombinant MMP2 using succinylated gelatin as substrate incubated for 30 mins prior to substrate addition measured after 60 mins
For assay [2], the target named is T1, Interstitial collagenase (Homo sapiens, UniProt P03956).
T1 sequence (P03956 whole entry): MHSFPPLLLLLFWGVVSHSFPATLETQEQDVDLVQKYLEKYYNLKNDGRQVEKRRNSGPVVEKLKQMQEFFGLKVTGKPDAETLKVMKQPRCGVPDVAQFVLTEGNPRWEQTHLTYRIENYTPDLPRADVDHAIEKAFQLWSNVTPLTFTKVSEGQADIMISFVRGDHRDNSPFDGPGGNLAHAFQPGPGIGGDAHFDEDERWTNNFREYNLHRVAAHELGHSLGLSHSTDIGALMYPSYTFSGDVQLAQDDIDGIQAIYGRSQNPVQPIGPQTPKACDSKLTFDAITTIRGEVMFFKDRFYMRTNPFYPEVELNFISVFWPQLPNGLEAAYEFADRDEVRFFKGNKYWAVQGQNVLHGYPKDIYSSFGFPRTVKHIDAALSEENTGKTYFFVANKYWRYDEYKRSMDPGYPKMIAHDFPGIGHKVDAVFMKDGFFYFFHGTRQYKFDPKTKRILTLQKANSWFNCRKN
Description: Inhibition of human recombinant MMP1 using succinylated gelatin as substrate incubated for 30 mins prior to substrate addition measured after 60 mins

Each structure is given as a SMILES string. pIC50: −log10 of the molar value.

Chain of 72 kDa type IV collagenase (P08253 whole entry): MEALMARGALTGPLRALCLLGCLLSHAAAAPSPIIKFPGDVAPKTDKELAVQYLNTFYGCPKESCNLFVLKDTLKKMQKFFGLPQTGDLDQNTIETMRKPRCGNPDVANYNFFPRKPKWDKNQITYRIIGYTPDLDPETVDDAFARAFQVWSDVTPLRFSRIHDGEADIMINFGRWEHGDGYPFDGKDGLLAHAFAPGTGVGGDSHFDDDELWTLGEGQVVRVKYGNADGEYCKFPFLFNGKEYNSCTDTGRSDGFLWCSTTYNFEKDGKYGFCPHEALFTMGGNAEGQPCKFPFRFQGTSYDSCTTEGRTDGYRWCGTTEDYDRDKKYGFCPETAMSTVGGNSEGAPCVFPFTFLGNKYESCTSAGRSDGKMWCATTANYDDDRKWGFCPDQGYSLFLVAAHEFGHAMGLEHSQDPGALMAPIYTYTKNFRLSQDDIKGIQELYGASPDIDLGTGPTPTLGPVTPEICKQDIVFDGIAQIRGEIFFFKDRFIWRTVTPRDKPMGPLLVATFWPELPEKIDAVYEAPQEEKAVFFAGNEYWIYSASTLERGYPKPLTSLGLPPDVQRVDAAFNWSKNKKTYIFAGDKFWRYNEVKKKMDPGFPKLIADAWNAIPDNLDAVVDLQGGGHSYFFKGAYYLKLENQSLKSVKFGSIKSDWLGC

The term pIC50 denotes −log10 of the IC50, conventionally taken in molar units. High values mean a small IC50, low ones a large IC50. As for `O=C(/C=C/c1ccc(O)c(O)c1)Nc1ccc(O)cc1`, the pIC50 in assay [1] is 8.48; in assay [2], 5.23.

Consider `O=C(/C=C/c1ccc(O)c(O)c1)Nc1ccc(F)cc1`, for which the pIC50 in assay [1] was 8.08; in assay [2], 5.36.

In the case of `COc1cccc(NC(=O)/C=C/c2ccc(O)c(O)c2)c1`, the values for the pIC50 in assay [1] and in assay [2] were 5.77 and 5.28, respectively.

With `O=C(/C=C/c1ccc(O)cc1)NCCc1ccccc1`, the pIC50 in assay [1] is 8.08; in assay [2], 5.49.

For the compound `O=C(/C=C/c1cccc(O)c1)Nc1ccc(Cl)cc1`, the pIC50 was 8.04 in assay [1] and 5.46 in assay [2].

As to `O=C(/C=C/c1ccc(O)c(O)c1)Nc1ccccc1F`, the pIC50 in assay [1] is 8.05; in assay [2], 5.37.

Take `Cc1ccccc1NC(=O)/C=C/c1cccc(O)c1`: the pIC50 in assay [1] was 8.24; in assay [2], 5.32.

With `Cc1ccc(NC(=O)/C=C/c2ccc(O)c(O)c2)cc1`, the pIC50 in assay [1] is 8.45; in assay [2], 5.32.

`Cc1cccc(NC(=O)/C=C/c2ccc(O)cc2)c1`: the pIC50 is 5.76 in assay [1] and 5.31 in assay [2].

With `O=C(/C=C/c1ccc(O)c(O)c1)Nc1ccc(Cl)cc1`, the figures for the pIC50 in assay [1] and in assay [2] were 8.05 and 5.40, respectively.

In the case of `Cc1cccc(NC(=O)/C=C/c2ccccc2)c1` [N-M-TOLYLCINNAMAMIDE], the negative-log IC50 (pIC50) is 5.71 in assay [1] and 5.34 in assay [2].

As for `Cc1cccc(NC(=O)/C=C/c2ccc(O)c(O)c2)c1`, the values for the pIC50 in assay [1] and in assay [2] were 5.76 and 5.32, respectively.

`O=C(/C=C/c1cccc(O)c1)Nc1cccc(F)c1`: the pIC50 is 5.73 in assay [1] and 5.38 in assay [2].

With `O=C(O)/C=C/c1ccc(O)c(O)c1` [CAFFEIC ACID], the pIC50 in assay [1] is 7.62; in assay [2], 6.62.

With `O=C(/C=C/c1ccc(O)c(O)c1)Nc1cccc(Cl)c1`, the pIC50 is 5.73 in assay [1] and 5.42 in assay [2].

`O=C(/C=C/c1ccc(O)c(O)c1)Nc1cccc(O)c1`: the pIC50 in assay [1] was 5.80; in assay [2] it was 5.24.

For `O=C(/C=C/c1ccc(O)c(O)c1)Nc1ccccc1O`, the results for the pIC50 in assay [1] and in assay [2] were 8.29 and 5.25, respectively.

Regarding `COc1cccc(NC(=O)/C=C/c2cccc(O)c2)c1`, the pIC50 in assay [1] was 5.78; in assay [2], 5.29.

As to `O=C(/C=C/c1ccc(O)cc1)Nc1cccc(F)c1`, the pIC50 in assay [1] was 5.80; in assay [2] it was 5.35.

For the compound `O=C(/C=C/c1ccccc1)NCCc1ccccc1`, the results for the pIC50 in assay [1] and in assay [2] were 8.04 and 5.49, respectively.

`O=C(/C=C/c1ccc(O)c(O)c1)NCc1ccccc1`: the pIC50 in assay [1] is 8.09; in assay [2], 5.49.

`O=C(/C=C/c1ccc(O)c(O)c1)Nc1cccc(F)c1`: the pIC50 in assay [1] is 5.74; in assay [2], 5.37.

Consider `O=C(/C=C/c1ccc(O)cc1)Nc1ccccc1F`, for which the pIC50 is 8.05 in assay [1] and 5.37 in assay [2].

On to `O=C(/C=C/c1cccc(O)c1)NCCc1ccccc1`, for which the figures for the pIC50 in assay [1] and in assay [2] were 8.07 and 5.44, respectively.

For the compound `COc1ccc(NC(=O)/C=C/c2ccc(O)c(O)c2)cc1`, the figures for the pIC50 in assay [1] and in assay [2] were 8.47 and 5.27, respectively.

In the case of `Cc1ccc(NC(=O)/C=C/c2ccccc2)cc1` [N-P-TOLYLCINNAMAMIDE], the pIC50 is 8.26 in assay [1] and 5.33 in assay [2].

`Cc1ccccc1NC(=O)/C=C/c1ccccc1` [N-O-TOLYLCINNAMAMIDE]: the pIC50 was 8.19 in assay [1] and 5.35 in assay [2].

Turning to `O=C(/C=C/c1cccc(O)c1)NCc1ccccc1`, the pIC50 in assay [1] is 8.07; in assay [2], 5.44.

Turning to `O=C(/C=C/c1cccc(O)c1)Nc1ccccc1` [3-HYDROXY-CINNAMANILIDE], the pIC50 in assay [1] was 8.08; in assay [2] it was 5.47.

Turning to `COc1cccc(NC(=O)/C=C/c2ccc(O)cc2)c1`, the pIC50 is 5.75 in assay [1] and 5.28 in assay [2].

With `O=C(/C=C/c1cccc(O)c1)Nc1ccccc1O`, the pIC50 in assay [1] is 8.25; in assay [2], 5.28.

As to `COc1ccccc1NC(=O)/C=C/c1ccc(O)c(O)c1`, the values for the pIC50 in assay [1] and in assay [2] were 8.28 and 5.28, respectively.

In the case of `O=C(/C=C/c1cccc(O)c1)Nc1ccccc1F`, the results for the pIC50 in assay [1] and in assay [2] were 8.04 and 5.39, respectively.

For the compound `O=C(/C=C/c1ccccc1)Nc1ccc(O)cc1`, the pIC50 is 8.28 in assay [1] and 5.27 in assay [2].

Consider `Cc1ccccc1NC(=O)/C=C/c1ccc(O)c(O)c1`, for which the pIC50 in assay [1] is 8.22; in assay [2], 5.33.

On to `O=C(/C=C/c1ccc(O)c(O)c1)NCCc1ccccc1` [CAFFEIC ACID PHENETHYL AMIDE], for which the pIC50 in assay [1] is 8.09; in assay [2] it was 5.48.

Consider `COc1ccc(NC(=O)/C=C/c2ccc(O)cc2)cc1`, for which the pIC50 in assay [1] was 8.39; in assay [2], 5.28.

Take `O=C(/C=C/c1ccc(O)c(O)c1)Nc1ccccc1Cl`: the pIC50 in assay [1] is 8.04; in assay [2], 5.43.

On to `O=C(/C=C/c1cccc(O)c1)Nc1ccccc1Cl`, for which the pIC50 in assay [1] is 8.03; in assay [2], 5.49.

In the case of `O=C(/C=C/c1ccc(O)cc1)NCc1ccccc1`, the pIC50 in assay [1] is 8.08; in assay [2] it was 5.50.

In the case of `O=C(/C=C/c1cccc(O)c1)Nc1ccc(F)cc1`, the pIC50 is 8.07 in assay [1] and 5.36 in assay [2].

As for `O=C(/C=C/c1ccc(O)c(O)c1)Nc1ccccc1`, the figures for the pIC50 in assay [1] and in assay [2] were 8.09 and 5.49, respectively.
